Results: PMC11356571, “The Comparative Metabolism of a Novel Hepatocellular Carcinoma Therapeutic Agent, 2,3-Diamino-N-(4-(benzo[d]thiazol-2-yl)phenyl)propanamide, in Human and Animal Hepatocytes” (Metabolites, 2024)

Columns and labels:
[1] = biological target: T1, human NAT1 (Homo sapiens, UniProt P18440); test: Incubation with cDNA-expressed human NAT1; format: in vitro ADME; details: cDNA-expressed human NAT1, 60 min at 37 °C, concentration of 0.1 μM
T1 construct: purchased Corning Life Sciences (Woburn, MA, USA)
T1 sequence (P18440 1-290): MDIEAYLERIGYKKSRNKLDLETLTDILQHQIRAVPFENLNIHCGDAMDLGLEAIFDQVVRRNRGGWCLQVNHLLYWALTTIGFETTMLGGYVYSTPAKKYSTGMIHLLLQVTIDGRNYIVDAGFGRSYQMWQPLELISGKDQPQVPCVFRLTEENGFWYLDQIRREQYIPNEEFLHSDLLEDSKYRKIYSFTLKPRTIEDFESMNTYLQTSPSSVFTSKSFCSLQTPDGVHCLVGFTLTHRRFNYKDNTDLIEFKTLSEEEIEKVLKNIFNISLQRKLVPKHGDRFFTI
Experimental: Additionally, M1 was incubated with cDNA-expressed human NAT1 isozyme to confirm the involvement of the NAT1 isozyme in the N-acetylation of M1. This was carried out by monitoring the remaining percentage of M1 and the formation of M2 in a concentration-dependent manner. A 225 μL reaction mixture containing cDNA-expressed human NAT1 at 1 μg/mL, and 1 μM M1 (final concentration: 0.1 and 1 μM) in 0.05 M potassium phosphate buffer was pre-warmed for 5 min. The reaction was initiated by adding 25 μL of acetyl-CoA regenerating system to the incubates. The acetyl-CoA regenerating system consisted of 0.1 mM acetyl-CoA, 4.5 mM acetyl-DL-carnitine, and 2.0 unit/mL carnitine acetyltransferase as final concentrations. The samples were incubated in triplicate for 0 min or 60 min at 37 °C. The reactions were stopped by adding 250 μL of ice-cold acetonitrile containing the IS (camptothecin, 500 ng/mL). Samples were centrifuged at 13,000 rpm for 5 min at 4 °C. An aliquot of 2 μL supernatant was injected in LC-MS/MS system.
For enzyme characterization, an Agilent 6460 triple quadrupole mass spectrometer coupled with a 1260 HPLC system (Agilent Technologies, Santa Clara, CA, USA) and a Kinetex Halo® C18 column (2.7 μm, 2.1 × 50 mm, Advanced Material Technology, Wilmington, DE, USA) were used for chromatographic separation. […] ETN101, M1, and M2 were detected via MRM using ESI in the positive mode. […]

[2] = test system: NAT1 in human liver cytosol; test: Human liver cytosol incubation with NAT1 inhibitor caffeic acid; format: in vitro ADME; details: 30 min at 37 °C, M1 1 μM
Experimental: For the chemical inhibition assay, human liver cytosol was prepared in 0.05 M potassium phosphate buffer at a concentration of 1 mg/mL prior to use. A 1 μL of M1 (final concentration: 1 μM) solution was spiked in 223 μL of human liver cytosol preparations. One microliter each of caffeic acid and 1-aminobenzotriazole were added and incubated as NAT1 and NAT2 inhibitors, respectively. The final concentrations of the NAT inhibitors were 0, 100, and 1000 μM in each incubate. After 5 min of pre-warming of the incubates at 37 °C, the metabolic reaction was initiated by adding 25 μL of acetyl-CoA regenerating system to the incubates. The samples were incubated in triplicate for 0 min or 30 min at 37 °C. The reaction was stopped by adding 250 μL of ice-cold acetonitrile containing the IS (camptothecin, 500 ng/mL) and vortex-mixing. Following centrifugation at 13,000 rpm for 5 min at 4 °C, a 2 μL aliquot of the supernatant was injected into the LC-MS/MS system. The percentage of remaining M1 and the formation of M2 were evaluated to determine the involvement of the NAT isozyme in N-acetylation of M1.
For enzyme characterization, an Agilent 6460 triple quadrupole mass spectrometer coupled with a 1260 HPLC system (Agilent Technologies, Santa Clara, CA, USA) and a Kinetex Halo® C18 column (2.7 μm, 2.1 × 50 mm, Advanced Material Technology, Wilmington, DE, USA) were used for chromatographic separation. The mobile phases comprised 0.1% (v/v) formic acid in water (mobile phase A) and 0.1% formic acid (v/v) in acetonitrile (mobile phase B). The mobile phase flowed at a rate of 0.3 mL/min, and the gradient elution program proceeded as follows: starting with 10% B for 0.5 min, a linear increase to 90% B for 0.2 min, maintaining 90% B for 1.5 min, and then returning to initial conditions for 0.2 min. Subsequently, the column was reconditioned using 10% B for 2.6 min. The column and auto-sampler were maintained at 40 °C and 4 °C, respectively. ETN101, M1, and M2 were detected via MRM using ESI in the positive mode. […]

SMILES: Nc1ccc(-c2nc3ccccc3s2)cc1 [M1, 2-(4-aminophenyl)benzothiazole]
- Percentage remaining of M1 [1]: 90.3%
- Percentage remaining of M1 ([2]; caffeic acid 0 μM): 87.2%
- Percentage remaining of M1 ([2]; caffeic acid 100 μM): 89.6%
- Percentage remaining of M1 ([2]; caffeic acid 1000 μM): 94.4%
